Entries after “also recorded” stand apart in the source; their conditions may differ.
What was measured:
[1] = Pharmacokinetic study of oral co-administration of SK14-061a and ETV in rats; format: in vivo
Procedure: At stipulated times after the administration (15 min, 45 min, 90 min, 3, 6 and 9 hr), venous blood samples were collected by means of a heparinized syringe (0.25ml). The blood samples were centrifuged (3,000 rpm, 10 min) to obtain plasma. […] All data are expressed as the mean ± S.D. Statistical analyses for multiple comparisons were determined by an analysis of variance (two-way ANOVA) using the Bonferroni correction for multiple comparisons. A probability value of p < 0.05 was considered to be significant. A non-compartment model was used for the pharmacokinetic analysis. Parameters were calculated using the program of a moment analysis developed by Tabata et al. Half-life (t1/2) were calculated from the elimination phase. Area under the concentration-time curve (AUC) were calculated using the following equations: AUC=∫0∞Cdt

[2] = Urinary excretion of unchanged SK14-061a after oral administration; format: in vivo, rats
Procedure: Rats were fasted for 12 h but with free access to water before dosing. Rats were orally (p.o.) administered a SK14-061a solution at a dose of 1 mg/kg. At stipulated times after the administration (15 min, 45 min, 90 min, 3, 4.5, 6 and 9 hr), venous blood samples were collected from tail vein using a heparinized syringe (0.25ml). The blood samples were centrifuged (3,000 rpm, 10 min) to obtain plasma. […] After obtaining the last blood sample, all rats were sacrificed and kidneys and liver collected. To determine the time-dependent tissue distribution of SK14-061a, rats were sacrificed and organs (kidneys and liver) were collected at 1 and 3 hr after the oral administration of SK14-061a at a dose of 1 mg/kg. To calculate bioavailability, plasma concentrations of SK14-061a after intravenous administration (1 mg/kg) were also obtained at 3 min, 15 min, 30 min, 1, 3, 6 and 9 hr. Before the LC-MS analysis, plasma samples that were collected for pharmacokinetic studies were treated in the same manner as described in the "Validation assays" section. A portion of the liver and kidney tissues (about 500 mg) were homogenized in water (1 mL). The homogenized samples were subsequently ultracentrifuged at 100,000 g for 1 hr, and the supernatant collected. Urine samples were centrifuged (3,000 rpm, 10 min) and the supernatants were used in the analyses. All samples derived from organs and urine were processed using a Waters Oasis MCX 96 well plate in the same manner as was used for the plasma samples before the LC-MS analysis.

[3] = Clinical chemistry (liver and kidney toxicity) after oral SK14-061a; format: in vivo, Sprague-Dawley rats; conditions: p.o., 1 mg/kg, 9 hr after administration
Procedure: Sprague-Dawley rats (male, 230–270 g) were purchased from the Kyudo Co., Ltd. (Saga, Japan). All animals were maintained under conventional housing conditions, with food and water ad libitum in a temperature-controlled room with a 12 hr dark/light cycle. Maintenance of the animals and the experimental procedures performed on them were carried out in accordance with NIH guidelines. All animal experiments were reviewed and approved by the Animal Care and Use committee of Sojo University (Permit #: 2015-P-020). Eight rats were divided into two group: non-treatment group as a control (n = 4) and SK14-061a-treated group (p.o., 1 mg/kg, n = 4). […] The blood samples were centrifuged (3,000 g, 5 min) to obtain plasma for analysis of aspartate aminotransferase (AST), alanine aminotransferase (ALT), urea nitrogen (BUN) and creatinine. All plasma samples were stored at -80 °C prior to analysis by a commercial clinical testing laboratory (Oriental Yeast Co., Tokyo, Japan).

[4] = Pharmacokinetic study of SK14-061a after oral and intravenous administration in rats; format: in vivo; conditions: 1 mg/kg
Procedure: Rats were fasted for 12 h but with free access to water before dosing. Rats were orally (p.o.) administered a SK14-061a solution at a dose of 1 mg/kg. At stipulated times after the administration (15 min, 45 min, 90 min, 3, 4.5, 6 and 9 hr), venous blood samples were collected from tail vein using a heparinized syringe (0.25ml). The blood samples were centrifuged (3,000 rpm, 10 min) to obtain plasma. Urine samples were collected in a metabolic cage for 9 hr after the administration of the SK14-061a solution. After obtaining the last blood sample, all rats were sacrificed and kidneys and liver collected. To determine the time-dependent tissue distribution of SK14-061a, rats were sacrificed and organs (kidneys and liver) were collected at 1 and 3 hr after the oral administration of SK14-061a at a dose of 1 mg/kg. To calculate bioavailability, plasma concentrations of SK14-061a after intravenous administration (1 mg/kg) were also obtained at 3 min, 15 min, 30 min, 1, 3, 6 and 9 hr. Before the LC-MS analysis, plasma samples that were collected for pharmacokinetic studies were treated in the same manner as described in the "Validation assays" section. A portion of the liver and kidney tissues (about 500 mg) were homogenized in water (1 mL). The homogenized samples were subsequently ultracentrifuged at 100,000 g for 1 hr, and the supernatant collected. Urine samples were centrifuged (3,000 rpm, 10 min) and the supernatants were used in the analyses. All samples derived from organs and urine were processed using a Waters Oasis MCX 96 well plate in the same manner as was used for the plasma samples before the LC-MS analysis. All data are expressed as the mean ± S.D. Statistical analyses for multiple comparisons were determined by an analysis of variance (two-way ANOVA) using the Bonferroni correction for multiple comparisons. A probability value of p < 0.05 was considered to be significant. A non-compartment model was used for the pharmacokinetic analysis. Parameters were calculated using the program of a moment analysis developed by Tabata et al. Half-life (t1/2) were calculated from the elimination phase. Area under the concentration-time curve (AUC) were calculated using the following equations: AUC=∫0∞Cdt

[5] = system: HIV-1MDR; parameters: method as in PMID 15200030; conditions: clone with Ala62Val, Val75Leu, Phe77Leu, Phe116Tyr, Gln115Met; cited from earlier work
[6] = system: HIV-1M184V; parameters: method as in PMID 15200030; conditions: lamivudine-resistant; cited from earlier work
[7] = system: human α1-acid glycoprotein (AGP); assay: Protein binding by ultrafiltration, AGP; format: in vitro ADME; conditions: 45 μM AGP, 500 ng/mL
Procedure: (§1) Protein binding assays were performed following a previous reported procedure, with minor modifications. In short, pooled human plasma, 600 μM HSA and 45 μM AGP were spiked with an aqueous solution of SK14-061a to produce a final SK14-061a concentration of 500 ng/mL, respectively. The unbound drug fraction was determined by ultrafiltration. Ultrafiltration was carried out using an Amicon® Ultra-0.5 mL centrifugal filter unit with an Ultracel®-30 membrane (Merck Millipore Company, MA). Samples of 500 μL were centrifuged at 14,000 g for 10 min. The SK14-061a concentration were determined by LC-MS without the SPE method.

[8] = Metabolism assay in vitro with rat liver microsomes; format: in vitro ADME; conditions: 100 ng/ml, 0.2 mg/ml rat liver microsomal protein, 60 min, 37°C
Procedure: SK14-061a (100 ng/ml) was incubated with the incubation mixtures (0.1 M potassium phosphate buffer (pH 7.4), 10 mM MgCl2, 1 mM EDTA, 1 mM NADP+, 10 mM glucose-6-phosphate, 10 units/ml glucose-6-phosphate dehydrogenase, and 0.2 mg/ml of rat liver microsomal protein). After a 5 min pre-incubation of the incubation mixture at 37°C, the metabolic reactions were initiated by the addition of SK14-061a. After 60 min, the SK14-061a was extracted from the incubation samples using the SPE method, and the SK14-061a concentration determined by LC-MS.

[9] = biological target: T1, Human serum albumin (HSA) (Homo sapiens, UniProt P02768); assay: Protein binding by ultrafiltration, HSA; format: in vitro ADME; conditions: 600 μM HSA, 500 ng/mL
T1 construct: purchased Sigma-Aldrich (Tokyo, Japan)
Procedure: as §1

[10] = Tissue distribution to liver and kidney after oral administration; format: in vivo; conditions: rats, p.o., 1 mg/kg
Procedure: Rats were fasted for 12 h but with free access to water before dosing. Rats were orally (p.o.) administered a SK14-061a solution at a dose of 1 mg/kg. At stipulated times after the administration (15 min, 45 min, 90 min, 3, 4.5, 6 and 9 hr), venous blood samples were collected from tail vein using a heparinized syringe (0.25ml). The blood samples were centrifuged (3,000 rpm, 10 min) to obtain plasma. Urine samples were collected in a metabolic cage for 9 hr after the administration of the SK14-061a solution. After obtaining the last blood sample, all rats were sacrificed and kidneys and liver collected. To determine the time-dependent tissue distribution of SK14-061a, rats were sacrificed and organs (kidneys and liver) were collected at 1 and 3 hr after the oral administration of SK14-061a at a dose of 1 mg/kg. To calculate bioavailability, plasma concentrations of SK14-061a after intravenous administration (1 mg/kg) were also obtained at 3 min, 15 min, 30 min, 1, 3, 6 and 9 hr. Before the LC-MS analysis, plasma samples that were collected for pharmacokinetic studies were treated in the same manner as described in the "Validation assays" section. A portion of the liver and kidney tissues (about 500 mg) were homogenized in water (1 mL). The homogenized samples were subsequently ultracentrifuged at 100,000 g for 1 hr, and the supernatant collected. Urine samples were centrifuged (3,000 rpm, 10 min) and the supernatants were used in the analyses. All samples derived from organs and urine were processed using a Waters Oasis MCX 96 well plate in the same manner as was used for the plasma samples before the LC-MS analysis.

[11] = Protein binding by ultrafiltration, pooled human plasma; format: in vitro ADME; conditions: read-out: protein binding rate in human pooled plasma (converted)
Procedure: as §1

[12] = system: wild-type HBV; parameters: method as in PMID 26122273; conditions: cited from earlier work
[13] = system: HBVL180M/S202G/M204V; parameters: method as in PMID 26122273; conditions: entecavir-resistant variant; cited from earlier work
[14] = system: HBVA181T/N236T; parameters: method as in PMID 26122273; conditions: adefovir dipivoxil-resistant variant; cited from earlier work
[15] = rat, plasma, po, 1 mg/kg, read-out: AUC
[16] = rat, plasma, po, 1 mg/kg, read-out: CL/F (converted)
[17] = rat, plasma, po, 1 mg/kg, read-out: Cmax
[18] = rat, plasma, po, 1 mg/kg, read-out: MRT
[19] = rat, plasma, po, 1 mg/kg, read-out: tmax
[20] = rats, p.o., ETV 1 mg/kg alone (SK14-061a (-))
[21] = rats, p.o., 1 mg/kg, 9 hr after oral administration

T1 sequence (P02768 25-609): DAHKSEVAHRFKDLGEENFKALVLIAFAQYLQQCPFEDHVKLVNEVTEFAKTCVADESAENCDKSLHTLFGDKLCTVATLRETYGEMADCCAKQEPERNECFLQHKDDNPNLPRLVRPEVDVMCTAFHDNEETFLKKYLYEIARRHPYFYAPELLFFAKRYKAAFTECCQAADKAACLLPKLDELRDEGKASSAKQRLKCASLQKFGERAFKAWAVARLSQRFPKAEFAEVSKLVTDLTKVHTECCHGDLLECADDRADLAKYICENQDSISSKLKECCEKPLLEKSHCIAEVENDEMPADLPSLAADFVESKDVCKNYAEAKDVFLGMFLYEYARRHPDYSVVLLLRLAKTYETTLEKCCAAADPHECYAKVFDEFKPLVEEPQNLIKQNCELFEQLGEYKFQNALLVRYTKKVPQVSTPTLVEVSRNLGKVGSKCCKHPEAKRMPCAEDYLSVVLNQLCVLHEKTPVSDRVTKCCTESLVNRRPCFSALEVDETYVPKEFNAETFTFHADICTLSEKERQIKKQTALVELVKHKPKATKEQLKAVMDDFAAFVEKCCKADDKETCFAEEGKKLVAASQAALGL

## C=C1[C@H](CO)[C@@H](O)C[C@@H]1n1cnc2c(=O)[nH]c(N)nc21 [ETV, entecavir]
[1]; rat, plasma, po, 1 mg/kg
  half-life: 1.98 ± 0.51 h
[1]; [15]
  AUC: 492 ± 31.5 ng·h/mL
[1]; [16]
  CL/F: 34 mL/min/kg
[1]; [17]
  Cmax: 135 ± 27.4 ng/mL
[1]; [18]
  MRT: 3.24 ± 0.68 h
[1]; [19]
  Tmax: 1.25 ± 0.43 h
[1]; [20]
  AUC: 261 ± 16.2 ng·h/mL
  CL/F: 64.2 ± 4.17 mL/min/kg
  Cmax: 147 ± 5.82 ng/mL
  MRT: 1.35 ± 0.03 h
  Tmax: 0.75 h
  t1/2: 0.72 ± 0.05 h

## N#C[C@]1(CO)O[C@@H](n2cnc3c(O)ncnc32)C[C@@H]1O [SK14-061a, 4′-cyano-2′-deoxyinosine]
[2]; during 72 hr after oral administration, authors' other study
  SK14-061a accumulated in the urine as share of the administered dose: about 45%
[2]; rat, urine, po, rats, p.o., 1 mg/kg, 9 hr, taken together with bioavailability (approximately 65%), read-out: recovery of SK14-061a in urine taking bioavailability into account
  dose excreted: ~30%
[2]; [21]
  amount of unchanged SK14-061a accumulated in the urine: about 46 ± 17 μg
  unchanged SK14-061a in urine as share of the administered dose: about 20%
[1]; rat, plasma, po, 1 mg/kg
  half-life: 4.07 ± 2.2 h
[1]; [15]
  AUC: 972 ± 185 ng·h/mL
[1]; [16]
  CL/F: 17.7 mL/min/kg
[1]; [17]
  Cmax: 165 ± 46.6 ng/mL
[1]; [18]
  MRT: 3.14 ± 2.16 h
[1]; [19]
  Tmax: 1.07 ± 0.4 h
[3]
  change of alanine aminotransferase (ALT) vs control rats: no significant changes
  change of aspartate aminotransferase (AST) vs control rats: no significant changes
  change of blood urea nitrogen (BUN) vs control rats: no significant changes
  change of creatinine vs control rats: no significant changes
[4]; rat, plasma, iv, rats
  half-life: 3.01 ± 1.48 h
  Cmax: 431 ± 36.3 ng/mL
  MRT: 3.58 ± 1.86 h
  clearance: 34.7 mL/min/kg
[4]; rat, plasma, iv, rats, i.v., read-out: AUC
  AUC: 475 ± 82.2 ng·h/mL
[4]; rat, plasma, oral, rats, p.o. vs i.v., read-out: F (bioavailability)
  bioavailability: ~65%
[4]; rat, plasma, po
  CL/F: 55.3 mL/min/kg
  Cmax: 48.8 ± 11.8 ng/mL
  MRT: 5.47 ± 1.52 h
[4]; rat, plasma, po, rats, alone (ETV (-))
  half-life: ~3.6 h
[4]; rat, plasma, po, rats, p.o., alone (ETV (-)), read-out: AUC
  AUC: 308 ± 49.7 ng·h/mL
[4]; rat, plasma, po, rats, p.o., alone (ETV (-)), read-out: tmax
  Tmax: 1.3 h
[4]; rats, p.o. vs i.v.
  MAT (mean absorption time): 1.89 h
[4]; rats, p.o., alone (ETV (-))
  AUC: 308 ± 49.7 ng·h/mL
  Tmax: 1.29 ± 0.34 h
[5]
  activity against HIV-1MDR: potent activity
[6]
  activity against HIV-1M184V: potent activity; also recorded: highly active
[7]
  binding rate to AGP: about 22.1 ± 0.01%
[8]
  non-metabolized form detected after incubation with rat microsomes: 73.7 ± 10.7%
[9]
  binding rate to HSA: about 14.7 ± 0.03%
[10]
  distribution to liver compared with kidney: distributed at higher levels to the liver than the kidney
[10]; sampled at 1, 3 and 9 hr
  time of maximum distribution in the kidney: 1 h
  time of maximum distribution in the liver: 1 h
[11]
  fraction unbound at 500 ng/mL: ~0.363

## N#C[C@]1(CO)O[C@@H](n2cnc3c(=O)[nH]c(N)nc32)C[C@@H]1O [4′-CN-2′-deoxyguanosine]
[12]
  activity against wild-type HBV: highly active
[13]
  activity against HBVL180M/S202G/M204V: highly active
[14]
  activity against HBVA181T/N236T: highly active
